Key:
Albumin [1] = target: T1, Albumin (Homo sapiens, UniProt P02768); test: Inhibition of D-fructose glycation in human serum albumin model by measuring ketoamine moieties incubated for 5 days by Nitroblue tetrazolium (NBT) reduction assay (reference value: 111.94 nmol/mL); details: 120 h, time 5 day
Albumin [2] = target: T1, Albumin; test: Inhibition of D-glucose glycation in human serum albumin model by measuring ketoamine moieties incubated for 33 days by Nitroblue tetrazolium (NBT) reduction assay (reference value: 66.64 nmol/mL); details: 792 h, time 33 day
Albumin [3] = target: T1, Albumin; test: Inhibition of D-fructose glycation in human serum albumin model by measuring ketoamine moieties incubated for 14 days by Nitroblue tetrazolium (NBT) reduction assay (reference value: 129.58 nmol/mL); details: 336 h, time 14 day
Albumin [4] = target: T1, Albumin; test: Inhibition of D-glucose glycation in human serum albumin model incubated for 14 days by UV spectroscopic analysis relative to control; details: 336 h, time 14 day
Albumin [5] = target: T1, Albumin; test: Inhibition of D-fructose glycation in human serum albumin model incubated for 14 days by UV spectroscopic analysis relative to control; details: 336 h, time 14 day
Albumin [6] = target: T1, Albumin; test: Inhibition of D-glucose glycation in human serum albumin model by measuring absorbance at 279 nm incubated for 33 days by UV spectroscopic analysis (reference value: 1.997); details: 792 h, time 33 day
Albumin [7] = target: T1, Albumin; test: Inhibition of D-glucose glycation in human serum albumin by measuring absorbance at 279 nm model incubated for 14 days by UV spectroscopic analysis (reference value: 2.302); details: 336 h, time 14 day
Albumin [8] = target: T1, Albumin; test: Inhibition of D-fructose glycation in human serum albumin model by measuring absorbance at 279 nm incubated for 33 days by UV spectroscopic analysis (Rvb =2.222); details: 792 h, time 33 day
Albumin [9] = target: T1, Albumin; test: Inhibition of D-glucose glycation in human serum albumin model by measuring ketoamine moieties incubated for 14 days by Nitroblue tetrazolium (NBT) reduction assay (reference value: 28.69 nmol/mL); details: 336 h, time 14 day
Albumin [10] = target: T1, Albumin; test: Inhibition of D-glucose glycation in human serum albumin model by measuring ketoamine moieties incubated for 26 days by Nitroblue tetrazolium (NBT) reduction assay (reference value: 28.79 nmol/mL); details: 624 h, time 26 day
Albumin [11] = target: T1, Albumin; test: Inhibition of D-fructose glycation in human serum albumin model by measuring ketoamine moieties incubated for 33 days by Nitroblue tetrazolium (NBT) reduction assay (reference value: 144.33 nmol/mL); details: 792 h, time 33 day
Albumin [12] = target: T1, Albumin; test: Inhibition of D-fructose glycation in human serum albumin model by measuring absorbance at 279 nm incubated for 14 days by UV spectroscopic analysis (reference value: 2.333); details: 336 h, time 14 day
Albumin [13] = target: T1, Albumin; test: Inhibition of D-glucose glycation in human serum albumin model by measuring absorbance at 279 nm incubated for 26 days by UV spectroscopic analysis (reference value: 2.301); details: 624 h, time 26 day
Albumin [14] = target: T1, Albumin; test: Inhibition of D-fructose glycation in human serum albumin model by measuring absorbance at 279 nm incubated for 30 days by UV spectroscopic analysis (reference value: 2.323); details: 720 h, time 30 day
Albumin [15] = target: T1, Albumin; test: Inhibition of D-glucose glycation in human serum albumin model by measuring absorbance at 279 nm incubated for 3 days by UV spectroscopic analysis (reference value: 0.562); details: 72 h, time 3 day
Albumin [16] = target: T1, Albumin; test: Inhibition of D-fructose glycation in human serum albumin model by measuring absorbance at 279 nm incubated for 3 days by UV spectroscopic analysis (reference value: 0.492); details: 72 h, time 3 day
Albumin [17] = target: T1, Albumin; test: Inhibition of D-glucose glycation in human serum albumin model by measuring ketoamine moieties incubated for 3 days by Nitroblue tetrazolium (NBT) reduction assay (reference value: 24.27 nmol/mL); details: 72 h, time 3 day
Albumin [18] = target: T1, Albumin; test: Inhibition of D-glucose glycation in human serum albumin model by measuring absorbance at 279 nm incubated for 7 days by UV spectroscopic analysis (reference value: […]); details: 168 h, time 7 day
Albumin [19] = target: T1, Albumin; test: Inhibition of D-fructose glycation in human serum albumin model by measuring absorbance at 279 nm incubated for 7 days by UV spectroscopic analysis (reference value: 1.072); details: 168 h, time 7 day
Albumin [20] = target: T1, Albumin; test: Inhibition of D-glucose glycation in human serum albumin model by measuring absorbance at 279 nm incubated for 5 days by UV spectroscopic analysis (reference value: 0.741); details: 120 h, time 5 day
Albumin [21] = target: T1, Albumin; test: Inhibition of D-fructose glycation in human serum albumin model by measuring ketoamine moieties incubated for 30 days by Nitroblue tetrazolium (NBT) reduction assay (reference value: 128.71 nmol/mL); details: 720 h, time 30 day
Albumin [22] = target: T1, Albumin; test: Inhibition of D-fructose glycation in human serum albumin model by measuring ketoamine moieties incubated for 26 days by Nitroblue tetrazolium (NBT) reduction assay (reference value: 118.21 nmol/mL); details: 624 h, time 26 day
Albumin [23] = target: T1, Albumin; test: Inhibition of D-fructose glycation in human serum albumin model by measuring ketoamine moieties incubated for 7 days by Nitroblue tetrazolium (NBT) reduction assay (reference value: 125.33 nmol/mL); details: 168 h, time 7 day
Albumin [24] = target: T1, Albumin; test: Inhibition of D-glucose glycation in human serum albumin model by measuring ketoamine moieties incubated for 30 days by Nitroblue tetrazolium (NBT) reduction assay (reference value: 27.85 nmol/mL); details: 720 h, time 30 day
Albumin [25] = target: T1, Albumin; test: Inhibition of D-glucose glycation in human serum albumin model assessed as reduction in fluorescence intensity incubated for 3 days by UV spectroscopic analysis relative to control; details: 72 h, time 3 day
Albumin [26] = target: T1, Albumin; test: Inhibition of D-fructose glycation in human serum albumin model by measuring ketoamine moieties incubated for 3 days by Nitroblue tetrazolium (NBT) reduction assay (reference value: 152.64 nmol/mL); details: 72 h, time 3 day
Albumin [27] = target: T1, Albumin; test: Inhibition of D-fructose glycation in human serum albumin model assessed as reduction in fluorescence intensity incubated for 3 days by UV spectroscopic analysis relative to control; details: 72 h, time 3 day
Albumin [28] = target: T1, Albumin; test: Inhibition of D-glucose glycation in human serum albumin model by measuring absorbance at 279 nm incubated for 30 days by UV spectroscopic analysis (reference value: 2.295); details: 720 h, time 30 day
Albumin [29] = target: T1, Albumin; test: Inhibition of D-fructose glycation in human serum albumin model by measuring absorbance at 279 nm incubated for 5 days by UV spectroscopic analysis (reference value: 1.056); details: 120 h, time 5 day
Albumin [30] = target: T1, Albumin; test: Inhibition of D-glucose glycation in human serum albumin model by measuring ketoamine moieties incubated for 5 days by Nitroblue tetrazolium (NBT) reduction assay (reference value: 18.58 nmol/mL); details: 120 h, time 5 day
Albumin [31] = target: T1, Albumin; test: Inhibition of D-glucose glycation in human serum albumin model by measuring ketoamine moieties incubated for 7 days by Nitroblue tetrazolium (NBT) reduction assay (reference value: 35.92 nmol/mL); details: 168 h, time 7 day
Albumin [32] = target: T1, Albumin; test: Inhibition of D-fructose glycation in human serum albumin model by measuring absorbance at 279 nm incubated for 26 days by UV spectroscopic analysis (reference value: 2.267); details: 624 h, time 26 day

T1 sequence (P02768 whole entry): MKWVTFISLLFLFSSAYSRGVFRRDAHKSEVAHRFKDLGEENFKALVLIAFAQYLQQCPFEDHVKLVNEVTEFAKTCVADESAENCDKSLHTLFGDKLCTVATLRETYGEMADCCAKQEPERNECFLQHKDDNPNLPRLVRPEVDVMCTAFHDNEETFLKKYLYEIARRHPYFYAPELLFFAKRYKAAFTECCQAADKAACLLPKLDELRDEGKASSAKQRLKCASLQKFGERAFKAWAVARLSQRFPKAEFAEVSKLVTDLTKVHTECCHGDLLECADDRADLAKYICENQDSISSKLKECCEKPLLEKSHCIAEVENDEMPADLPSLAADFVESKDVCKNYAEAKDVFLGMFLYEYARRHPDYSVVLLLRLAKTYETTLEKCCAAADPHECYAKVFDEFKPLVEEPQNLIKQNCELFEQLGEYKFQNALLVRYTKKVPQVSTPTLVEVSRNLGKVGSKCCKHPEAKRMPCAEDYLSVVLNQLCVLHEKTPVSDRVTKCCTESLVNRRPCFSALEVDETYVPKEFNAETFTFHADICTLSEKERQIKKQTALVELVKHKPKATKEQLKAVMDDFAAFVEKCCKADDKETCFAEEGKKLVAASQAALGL

Activity (Albumin [1]): 105.35 nmol/mL | Activity (Albumin [2]): 36.79 nmol/mL | Activity (Albumin [3]): 124.63 nmol/mL | inhibition (INH) (Albumin [4]): 41.84% | inhibition (INH) (Albumin [5]): 1.59% | OD (Albumin [6]): 1.853 | OD (Albumin [7]): 1.662 | OD (Albumin [8]): 2.173 | Activity (Albumin [9]): 25.34 nmol/mL | Activity (Albumin [10]): 27.61 nmol/mL | Activity (Albumin [11]): 143.12 nmol/mL | OD (Albumin [12]): 1.872 | OD (Albumin [13]): 2.274 | OD (Albumin [14]): 1.866 | OD (Albumin [15]): 0.562 | OD (Albumin [16]): 0.487 | Activity (Albumin [17]): 20.51 nmol/mL | OD (Albumin [18]): 0.609 | OD (Albumin [19]): 0.756 | OD (Albumin [20]): 0.684 | Activity (Albumin [21]): 123.84 nmol/mL | Activity (Albumin [22]): 113.02 nmol/mL | Activity (Albumin [23]): 119.64 nmol/mL | Activity (Albumin [24]): 24.69 nmol/mL | inhibition (INH) (Albumin [25]): 52.1% | Activity (Albumin [26]): 144.52 nmol/mL | inhibition (INH) (Albumin [27]): 27.77% | OD (Albumin [28]): 1.654 | OD (Albumin [29]): 1.024 | Activity (Albumin [30]): 17.43 nmol/mL | Activity (Albumin [31]): 19.93 nmol/mL | OD (Albumin [32]): 2.127
SMILES: NCCC(=O)N[C@@H](Cc1cnc[nH]1)C(=O)O [CARNOSINE]
